pIC50: −log10 of the molar value. Read-outs that look alike come from different tables or passages of the source.
Experiments:
[1] = molecular target: ROCK1 (Homo sapiens, UniProt Q13464); experiment: ROCK assay (LabChip peptide phosphorylation), ROCK1; assay type: biochemical; settings: 5 μM ATP, 1.5 μM peptide substrate
[2] = system: three rat models of hypertension; settings: cited from earlier work
[3] = system: neointimal formation; settings: rats, model similar to balloon injury; cited from earlier work
[4] = system: IL-1 beta-induced coronary stenosis; settings: porcine model, long term treatment; cited from earlier work

Sequence of ROCK1 (Q13464 whole entry, species assumed): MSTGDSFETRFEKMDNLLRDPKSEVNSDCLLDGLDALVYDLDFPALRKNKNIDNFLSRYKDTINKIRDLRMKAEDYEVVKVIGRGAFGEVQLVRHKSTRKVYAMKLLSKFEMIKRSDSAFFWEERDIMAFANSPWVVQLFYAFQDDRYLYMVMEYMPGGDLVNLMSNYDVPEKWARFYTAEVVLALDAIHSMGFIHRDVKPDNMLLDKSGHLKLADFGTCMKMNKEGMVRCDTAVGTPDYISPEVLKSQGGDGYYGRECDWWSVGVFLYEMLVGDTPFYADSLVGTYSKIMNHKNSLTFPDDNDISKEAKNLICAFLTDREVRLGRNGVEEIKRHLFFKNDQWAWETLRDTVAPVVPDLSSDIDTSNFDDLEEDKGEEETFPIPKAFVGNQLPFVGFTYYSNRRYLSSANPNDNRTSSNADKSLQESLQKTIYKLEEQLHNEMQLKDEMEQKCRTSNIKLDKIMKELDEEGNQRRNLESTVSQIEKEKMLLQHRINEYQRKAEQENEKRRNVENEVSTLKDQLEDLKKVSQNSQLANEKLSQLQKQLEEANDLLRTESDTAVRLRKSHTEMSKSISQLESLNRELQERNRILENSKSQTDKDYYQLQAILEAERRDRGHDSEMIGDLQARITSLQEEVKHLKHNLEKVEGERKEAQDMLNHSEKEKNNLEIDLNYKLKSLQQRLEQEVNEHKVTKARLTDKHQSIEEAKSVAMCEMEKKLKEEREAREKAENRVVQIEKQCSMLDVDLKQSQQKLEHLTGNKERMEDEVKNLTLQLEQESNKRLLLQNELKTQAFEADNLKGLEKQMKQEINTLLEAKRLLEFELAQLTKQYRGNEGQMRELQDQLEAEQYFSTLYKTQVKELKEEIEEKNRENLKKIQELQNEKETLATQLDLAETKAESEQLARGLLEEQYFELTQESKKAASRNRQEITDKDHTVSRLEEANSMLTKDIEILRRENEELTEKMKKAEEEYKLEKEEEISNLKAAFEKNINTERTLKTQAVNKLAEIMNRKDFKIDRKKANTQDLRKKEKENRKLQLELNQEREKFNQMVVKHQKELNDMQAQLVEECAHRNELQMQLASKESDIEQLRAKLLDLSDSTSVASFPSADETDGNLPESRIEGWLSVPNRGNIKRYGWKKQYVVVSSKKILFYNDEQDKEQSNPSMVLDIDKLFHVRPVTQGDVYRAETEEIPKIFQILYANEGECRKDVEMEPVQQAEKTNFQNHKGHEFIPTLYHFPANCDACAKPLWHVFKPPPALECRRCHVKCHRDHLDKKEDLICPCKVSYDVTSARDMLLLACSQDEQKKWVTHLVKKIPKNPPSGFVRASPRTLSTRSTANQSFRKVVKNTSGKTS

COc1cc(C(=O)NC(C)c2cc(F)cc(F)c2)ccc1-c1cn[nH]c1 (racemic) [Example 67, (+/−)-N-(1-(3,5-difluorophenyl)ethyl)-3-methoxy-4-(1H-pyrazol-4-yl)benzamide]
pIC50 [1]: 7.58

COc1cc(C(=O)NCc2cccc(O)c2)ccc1-c1cn[nH]c1 [Example 6, N-(3-hydroxybenzyl)-3-methoxy-4-(1H-pyrazol-4-yl)benzamide]
pIC50 [1]: 9.07

COC(=O)c1cccc(CNC(=O)c2ccc(-c3cn[nH]c3)c(OC)c2)c1 [Example 8, methyl 3-((3-methoxy-4-(1H-pyrazol-4-yl)benzamido)methyl)benzo-ate]
pIC50 [1]: 8.58

CNC(=O)c1cccc(CNC(=O)c2ccc(-c3cn[nH]c3)c(OC)c2)c1 [Example 65, 3-methoxy-N-(3-(methylcarbamoyl)benzyl)-4-(1H-pyrazol-4-yl)benzamide]
pIC50 [1]: 8.52

C[C@@H](N)[C@H]1CC[C@H](C(=O)Nc2ccncc2)CC1 [Example Y-27632, Y-27632]
blood pressure ([2]; control rats): only a minor effect on blood pressure | blood pressure ([2]; spontaneously hypertensive rat, renal hypertensive rat and deoxycortisone acetate salt hypertensive rat models): significantly decrease blood pressure | neointimal formation [3]: inhibited neointimal formation

O=S(=O)(c1cccc2cnccc12)N1CCCNCC1 [fasudil]
coronary constrictive remodeling [4]: promote a regression of coronary constrictive remodeling | coronary stenosis [4]: progressively reduce coronary stenosis
